Calls of active or inactive are those of the source.
Legend:
H9c2 = experiment: cells; assay type: functional, cell-based; conditions: Rattus norvegicus, H9c2, Myocardium
[1] = potency of ADAM10 substrate cleavage blockers – biochemical, QFRET, dose response (AID 743254);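 further: ADAM10 enzyme with the DM2 quenched FRET peptide as substrate; EDANS fluorescence gain as the protease cuts the substrate; inhibitor potency against ADAM10 proteolytic activity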
[2] = biological target: T1, Disintegrin and metalloproteinase domain-containing protein 17 (Homo sapiens, UniProt P78536); experiment: inhibition of ADAM17 substrate cleavage – biochemical, quenched FRET substrate, counter-screen for ADAM10 exosite inhibitor project, dose response (AID 743253)
[3] = biological target: T1, Disintegrin and metalloproteinase domain-containing protein 17; experiment: exosite inhibitors of ADAM17, dose response, biochemical (AID 743260)
[4] = inhibition of ADAM10 peptide cleavage – biochemical, FRET peptide substrate, recombinant human ADAM10, selectivity assay for ADAM17 exosite inhibitor project, dose response (AID 743259);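 further: ADAM10 enzyme cleaving a FRET peptide substrate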
[5] = biological target: T2, Methionyl-tRNA synthetase, putative (Trypanosoma brucei brucei, UniProt Q38C91); assay type: functional, Trypanosoma brucei brucei strain 927/4 GUTat10.1
T2 sequence (Q38C91 whole entry): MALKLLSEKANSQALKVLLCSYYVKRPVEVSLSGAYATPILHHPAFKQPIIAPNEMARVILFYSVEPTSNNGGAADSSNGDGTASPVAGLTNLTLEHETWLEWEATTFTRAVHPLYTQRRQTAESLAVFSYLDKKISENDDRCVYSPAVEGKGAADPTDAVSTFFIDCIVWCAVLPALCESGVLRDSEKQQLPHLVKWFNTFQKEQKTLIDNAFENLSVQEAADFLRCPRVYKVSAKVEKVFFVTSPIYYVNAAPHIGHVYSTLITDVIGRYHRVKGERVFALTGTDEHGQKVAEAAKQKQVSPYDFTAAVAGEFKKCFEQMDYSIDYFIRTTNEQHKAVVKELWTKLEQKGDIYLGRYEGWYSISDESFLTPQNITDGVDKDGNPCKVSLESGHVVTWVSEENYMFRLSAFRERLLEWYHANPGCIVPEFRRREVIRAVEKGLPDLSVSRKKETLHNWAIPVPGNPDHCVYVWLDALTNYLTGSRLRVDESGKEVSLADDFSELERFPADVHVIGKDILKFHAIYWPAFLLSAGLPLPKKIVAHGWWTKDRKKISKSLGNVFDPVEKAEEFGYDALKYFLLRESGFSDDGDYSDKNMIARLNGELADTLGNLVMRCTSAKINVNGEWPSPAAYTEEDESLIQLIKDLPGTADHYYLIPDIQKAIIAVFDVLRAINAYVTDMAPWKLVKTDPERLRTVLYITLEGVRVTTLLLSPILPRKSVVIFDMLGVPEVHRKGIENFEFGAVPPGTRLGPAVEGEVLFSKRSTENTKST

[6] = biological target: T3, Long-chain-fatty-acid--AMP ligase FadD28 (Mycobacterium tuberculosis, UniProt P9WQ59); experiment: Fluorescence polarization aasay to screen for inhibitors that compete for the binding of FadD28 to a bisubstrate Measured in Biochemical System Using Plate Reader - 2147-01_Inhibitor_Dose_CherryPick_Activity.; assay type: functional, Mycobacterium tuberculosis H37Rv
T3 sequence (P9WQ59 whole entry): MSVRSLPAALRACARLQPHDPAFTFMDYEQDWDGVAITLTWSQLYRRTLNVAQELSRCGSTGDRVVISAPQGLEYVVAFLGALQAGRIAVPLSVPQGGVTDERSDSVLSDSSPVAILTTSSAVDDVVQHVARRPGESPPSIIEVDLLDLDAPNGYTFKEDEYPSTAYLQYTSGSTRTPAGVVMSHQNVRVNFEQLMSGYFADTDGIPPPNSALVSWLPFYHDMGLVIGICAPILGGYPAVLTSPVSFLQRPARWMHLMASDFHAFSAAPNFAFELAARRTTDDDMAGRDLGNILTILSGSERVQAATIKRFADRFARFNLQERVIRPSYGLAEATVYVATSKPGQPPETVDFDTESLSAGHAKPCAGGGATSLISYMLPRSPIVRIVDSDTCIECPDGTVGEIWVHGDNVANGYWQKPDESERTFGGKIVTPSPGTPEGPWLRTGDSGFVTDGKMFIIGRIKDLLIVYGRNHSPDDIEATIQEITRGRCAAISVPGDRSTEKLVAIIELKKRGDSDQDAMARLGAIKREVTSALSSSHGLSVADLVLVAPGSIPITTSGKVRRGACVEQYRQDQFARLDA

[7] = biological target: T2, Methionyl-tRNA synthetase, putative; assay type: functional, Trypanosoma brucei brucei strain 927/4 GUTat10.1; remark: listed apart in the source
[8] = Counterscreen for inhibitors of Trypanosoma brucei methionyl tRNA synthetase (MetRS): Luminescence-based cell-based high throughput dose response assay to identify compounds that are cytotoxic to Jurkat human T lymphocyte cells.; assay type: functional
cells = assay type: functional, cell-based
[9] = biological target: T4, Nuclear receptor subfamily 0 group B member 1 (Homo sapiens, UniProt P51843); assay type: functional, cell-based;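 further: HEK293T cells transfected with SF-1 and DAX-1 plus StAR promoter luciferase reporter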
T4 sequence (P51843 whole entry): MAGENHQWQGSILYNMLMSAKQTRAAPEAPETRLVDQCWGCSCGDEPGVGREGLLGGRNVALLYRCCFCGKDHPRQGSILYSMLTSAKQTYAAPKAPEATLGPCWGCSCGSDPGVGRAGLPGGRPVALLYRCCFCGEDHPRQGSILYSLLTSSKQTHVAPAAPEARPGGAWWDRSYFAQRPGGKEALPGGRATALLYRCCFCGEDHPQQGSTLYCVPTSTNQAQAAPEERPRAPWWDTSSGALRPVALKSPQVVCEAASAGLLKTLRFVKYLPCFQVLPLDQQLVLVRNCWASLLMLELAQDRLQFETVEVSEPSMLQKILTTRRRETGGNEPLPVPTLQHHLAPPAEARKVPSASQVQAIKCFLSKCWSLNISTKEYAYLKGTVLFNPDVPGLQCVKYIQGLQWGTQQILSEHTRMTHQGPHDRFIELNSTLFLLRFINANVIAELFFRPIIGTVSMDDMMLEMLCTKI

[10] = general mammalian cell viability loss – inhibitor set, cherry-pick, set 2, cytotoxicity control for miR-122 modulator project, dose response (AID 720697); assay type: functional, cell-based
H4 = experiment: Luminescence Cell-Based Dose Response HTS to Identify Activators of 5'UTR Stem-Loop Driven Prion Protein mRNA Translation in H4 Neuroglioblastoma Cells. [Related pubchem assays: 1829 (Project Summary), 1814 (Primary HTS)]; assay type: functional; conditions: Homo sapiens
[11] = Luminescence Cell-Based Dose Response HTS to Identify Activators of Luciferase Translation or Activity in H4 […] Cells. [Related pubchem assays: 1829 (Project Summary), 1814 (Primary HTS)]; assay type: functional
[12] = general cell-killing toxicity readout – plate reader, dry powder samples, cytotoxicity control for PAX8 inhibitor project, dose response (AID 743021); assay type: functional, cell-based
Protein RecA = biological target: T5, Protein RecA (Mycobacterium tuberculosis, UniProt P9WHJ3); experiment: Fluorescence Cell-Free Homogeneous Dose Retest to Identify Inhibitors of RecA-Intein Splicing Activity. [Related pubchem assays (depositor defined):AID2097, AID2223, AID489010, AID492950]; assay type: functional
T5 sequence (P9WHJ3 whole entry): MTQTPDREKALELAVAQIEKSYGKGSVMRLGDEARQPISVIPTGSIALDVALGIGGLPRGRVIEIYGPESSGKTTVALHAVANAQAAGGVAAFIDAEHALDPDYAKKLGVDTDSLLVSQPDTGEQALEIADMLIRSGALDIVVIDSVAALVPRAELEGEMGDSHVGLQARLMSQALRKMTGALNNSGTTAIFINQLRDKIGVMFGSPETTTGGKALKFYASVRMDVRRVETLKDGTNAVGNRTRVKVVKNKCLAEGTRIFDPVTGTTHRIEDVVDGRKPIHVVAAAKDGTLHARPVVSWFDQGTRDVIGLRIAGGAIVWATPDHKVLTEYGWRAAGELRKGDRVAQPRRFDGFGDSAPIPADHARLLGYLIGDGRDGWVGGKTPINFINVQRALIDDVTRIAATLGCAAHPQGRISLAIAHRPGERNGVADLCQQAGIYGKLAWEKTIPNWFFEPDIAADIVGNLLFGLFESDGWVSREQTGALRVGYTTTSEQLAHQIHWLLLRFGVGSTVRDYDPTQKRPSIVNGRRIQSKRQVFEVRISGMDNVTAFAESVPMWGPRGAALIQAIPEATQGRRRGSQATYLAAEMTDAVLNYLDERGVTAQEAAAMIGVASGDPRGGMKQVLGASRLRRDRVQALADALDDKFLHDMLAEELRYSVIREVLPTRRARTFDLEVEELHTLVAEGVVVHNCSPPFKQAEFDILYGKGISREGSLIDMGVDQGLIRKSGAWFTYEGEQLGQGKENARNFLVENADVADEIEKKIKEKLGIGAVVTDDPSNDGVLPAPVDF

[13] = biological target: T6, Replicative DNA helicase DnaB (Mycobacterium tuberculosis, UniProt P9WMR3); experiment: DnaB intein splicing inhibitors, dose response, biochemical, cell-free fluorescence (AID 449749); assay type: functional
T6 sequence (P9WMR3 whole entry): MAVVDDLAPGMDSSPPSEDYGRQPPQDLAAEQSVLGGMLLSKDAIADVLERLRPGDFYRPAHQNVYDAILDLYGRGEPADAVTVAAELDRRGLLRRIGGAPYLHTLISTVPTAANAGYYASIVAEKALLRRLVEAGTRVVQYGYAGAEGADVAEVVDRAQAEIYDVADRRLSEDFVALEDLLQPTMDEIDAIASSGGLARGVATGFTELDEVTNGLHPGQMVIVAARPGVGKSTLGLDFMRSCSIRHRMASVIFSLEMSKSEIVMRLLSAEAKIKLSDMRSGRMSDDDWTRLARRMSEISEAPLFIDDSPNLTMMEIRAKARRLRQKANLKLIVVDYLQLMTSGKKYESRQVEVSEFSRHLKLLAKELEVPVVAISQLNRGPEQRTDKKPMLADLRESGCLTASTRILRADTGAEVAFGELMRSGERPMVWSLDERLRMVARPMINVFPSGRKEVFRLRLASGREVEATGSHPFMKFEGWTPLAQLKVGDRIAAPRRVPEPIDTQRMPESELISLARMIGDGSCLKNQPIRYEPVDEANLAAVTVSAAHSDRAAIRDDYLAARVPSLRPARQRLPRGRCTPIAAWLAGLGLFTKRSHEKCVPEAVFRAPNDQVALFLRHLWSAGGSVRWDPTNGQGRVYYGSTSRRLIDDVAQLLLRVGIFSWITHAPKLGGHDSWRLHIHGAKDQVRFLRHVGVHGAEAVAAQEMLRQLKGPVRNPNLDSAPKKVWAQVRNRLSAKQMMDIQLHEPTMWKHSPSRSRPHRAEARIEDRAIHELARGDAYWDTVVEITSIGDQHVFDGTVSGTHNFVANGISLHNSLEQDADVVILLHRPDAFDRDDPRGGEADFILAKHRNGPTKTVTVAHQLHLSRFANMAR

Paired box protein Pax-8 = Paired box protein Pax-8 (Homo sapiens, UniProt Q06710); experiment: PAX8 transcriptional activity inhibition in RMG-I – RMG-I cells, luciferase, cherry-pick, dose response (AID 687027); assay type: functional, cell-based;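 further: luciferase reporter driven by Pax8 target thyroperoxidase promoter measured by SteadyGlo luminescence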
[14] = IGROV1 cell killing – plate reader, dry powder samples, PAX8 inhibitor project, dose response (AID 743043); assay type: functional, cell-based; conditions: IGROV-1
[15] = OVCAR-3 cell viability loss – plate reader, dry powder samples, PAX8 inhibitor project, dose response (AID 743044); assay type: functional, cell-based
[16] = OVCAR8 cell viability loss – plate reader, dry powder samples, PAX8 project, dose response (AID 743197); assay type: functional, cell-based; conditions: OVCAR-8

T1 sequence (P78536 whole entry, the tested form may be a part): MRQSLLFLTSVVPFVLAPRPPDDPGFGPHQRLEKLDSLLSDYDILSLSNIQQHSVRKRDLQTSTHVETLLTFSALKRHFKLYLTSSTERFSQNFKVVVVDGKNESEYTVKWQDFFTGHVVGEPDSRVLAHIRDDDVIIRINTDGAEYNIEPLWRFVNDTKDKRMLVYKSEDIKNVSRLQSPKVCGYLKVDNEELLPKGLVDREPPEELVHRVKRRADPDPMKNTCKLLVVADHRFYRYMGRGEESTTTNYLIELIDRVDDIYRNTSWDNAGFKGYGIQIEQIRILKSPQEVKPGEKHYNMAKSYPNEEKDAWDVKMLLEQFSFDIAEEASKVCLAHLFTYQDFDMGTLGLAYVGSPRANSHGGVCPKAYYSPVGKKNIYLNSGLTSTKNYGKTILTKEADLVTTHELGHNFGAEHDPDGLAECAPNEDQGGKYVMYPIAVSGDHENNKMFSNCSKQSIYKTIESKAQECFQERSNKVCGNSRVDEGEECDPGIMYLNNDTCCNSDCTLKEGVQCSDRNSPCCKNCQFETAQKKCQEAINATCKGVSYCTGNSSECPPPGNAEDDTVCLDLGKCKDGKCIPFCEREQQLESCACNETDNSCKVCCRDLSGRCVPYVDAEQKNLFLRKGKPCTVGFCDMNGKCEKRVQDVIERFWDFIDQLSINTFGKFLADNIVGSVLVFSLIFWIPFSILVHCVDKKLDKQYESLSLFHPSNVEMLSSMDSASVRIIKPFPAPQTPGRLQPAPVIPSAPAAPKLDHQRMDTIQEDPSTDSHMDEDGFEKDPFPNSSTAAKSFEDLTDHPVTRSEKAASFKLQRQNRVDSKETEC
Chain of Paired box protein Pax-8 (Q06710 whole entry): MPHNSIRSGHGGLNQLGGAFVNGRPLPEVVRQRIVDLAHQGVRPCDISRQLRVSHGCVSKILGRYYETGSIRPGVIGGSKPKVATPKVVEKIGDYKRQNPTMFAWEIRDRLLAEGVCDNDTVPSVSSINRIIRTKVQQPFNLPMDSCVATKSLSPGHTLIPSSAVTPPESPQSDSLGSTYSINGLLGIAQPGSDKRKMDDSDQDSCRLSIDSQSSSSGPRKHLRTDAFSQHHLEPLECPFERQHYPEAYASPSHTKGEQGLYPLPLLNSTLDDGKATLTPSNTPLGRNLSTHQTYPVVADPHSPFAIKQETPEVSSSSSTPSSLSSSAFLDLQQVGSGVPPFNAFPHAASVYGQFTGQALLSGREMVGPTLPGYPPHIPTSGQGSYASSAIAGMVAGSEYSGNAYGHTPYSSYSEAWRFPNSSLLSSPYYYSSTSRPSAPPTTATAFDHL

## O=C(NO)c1ccc(C(=O)N(C2CCCCC2)C2CCCCC2)cc1
H9c2
  IC50: > 79 µM (inactive)
[1]
  IC50: 14.6 µM (inactive)
[2]
  IC50: 34.9 µM (inactive)

## O=C1NC(=O)C(Cc2ccc(Cl)cc2)(c2ccccc2)N1 (stereo unspecified)
[3]
  IC50: 3.67 µM (active)
[4]
  IC50: 29.4 µM (inactive)

## O=C(NN1C(=O)/C(=C/c2ccc(O)cc2)SC1=S)c1cccc(O)c1
[5]
  IC50: 44.6 µM (inactive)
[6]
  AC50: 62 µM (active)
[7]
  IC50: 30.9 µM (inactive)
[8]
  IC50: 83.3 µM (inactive)

## Clc1ccc(OCc2cc(-c3ccccc3)no2)c(Cl)c1
cells
  IC50: > 67.5 µM (inactive)
[9]
  IC50: > 67.5 µM (inactive)

## COCC(=O)NC[C@@H]1[C@H](c2ccc(C3=CCCC3)cc2)[C@H](CO)N1C(=O)C1CC1
[10]
  AC50: 0.499 µM (active)

## COc1ccccc1/C=C/C1C(C(=O)OCC(C)C)=C(C)N=C2SCCC(=O)N21 (stereo unspecified)
[3]
  IC50: > 69.5 µM (inactive)
[4]
  IC50: > 69.5 µM (inactive)

## Cc1cc(Cl)c2oc(C(=O)N(C)C3CCOC3)c(C)c2c1 (stereo unspecified)
cells
  IC50: > 67.5 µM (inactive)
[9]
  IC50: > 67.5 µM (inactive)

## Cc1ccc(-n2nc(C)c(NC(=O)CCl)c2C)cc1C
H4
  EC50: > 120 µM (not active)
[11]
  EC50: 115 µM (active)
[12]
  AC50: 39.5 µM (active)
Protein RecA
  EC50: 16 µM (active)
[13]
  AC50: > 380 µM (inactive)
Paired box protein Pax-8
  AC50: 6.77 µM (active)

## FC(F)(F)c1cc(CCN2C(=S)NC[C@@H]2Cc2ccccc2)cc(C(F)(F)F)c1
[2]
  IC50: > 69.5 µM (inactive)

## Cc1ccc(OCc2nnc(SC/C=C/c3ccccc3)n2Cc2ccco2)cc1
[3]
  IC50: > 69.6 µM (inactive)
[4]
  IC50: 16 µM (inactive)

## COC(=O)C1=C(c2ccccc2OCc2ccccc2)C[C@@H]2CC[C@H]1N2C(=O)NCc1ccc(C(C)(C)C)cc1
[1]
  IC50: > 69.5 µM (inactive)
[2]
  IC50: > 69.5 µM (inactive)

## COC(=O)c1sccc1NC(=O)Nc1ccc(C)cc1
cells
  IC50: > 67.6 µM (inactive)
[9]
  IC50: > 67.6 µM (inactive)

## FC(F)(F)c1cc(CCN2C(S)=NC[C@@H]2Cc2ccccc2)cc(C(F)(F)F)c1
[1]
  IC50: 11.8 µM (inactive)

## Cc1ccc(-n2c(S)nnc2Cc2ccccc2)cc1
[10]
  AC50: 3.74 µM (active)

## O=C(Nc1ccc(F)cc1)N1C[C@@H]2N[C@H](C1)[C@@H]2c1ccc(-c2ccccc2F)cc1
[14]
  AC50: 42.5 µM (active)
[15]
  AC50: 32 µM (active)
[12]
  AC50: 55.6 µM (active)
[16]
  AC50: > 70 µM (inactive)
Paired box protein Pax-8
  AC50: 13.8 µM (active)

Source: ChEMBL document CHEMBL1201862, “PubChem BioAssay data set” (2004)
